Earlier results, collected in US8338072B2, “Resist composition, resist pattern forming process, and method for manufacturing semiconductor device” (Fujitsu Limited, priority 2006, dated 2012).
Read-outs that look alike come from different tables or passages of the source.

pKa (values for example additives) | pKa (Table 1, additives 4A to 4F) | Compound
8.63 | – | NCc1ccccc1O [2-hydroxybenzylamine]
– | 4.57 | CC(O)C(=O)O (stereo not shown) [Example 4B, Lactic acid]
7.12 | 7.12 | NCCN [Example 4D, Ethylenediamine]
– | 10.85 | CCCCCCN [Example 4E, Hexylamine]
10.93 | 10.93 | CCCCCN [Example 4F, Pentylamine]
4.57 | – | CCCC(=O)O [butyric acid]
10.56 | – | NC1CCCC1 [cyclopentylamine]
13.65 | – | c1ccc(Nc2ccccc2)cc1 [diphenylamine]
3.07 | – | O=C(O)/C=C/C(=O)O [fumaric acid]
10.93 | – | CCCN [propylamine]
3.99 | – | O=C(O)CCC(=O)O [succinic acid]
5.17 | – | CCCCC(=O)O [valeric acid]
5.80-6.10 | – | methylpyridine

Compound | pKa (values for example additives) | pKa (Table 1, additives 4A to 4F)
NC1CCCCC1 [cyclohexylamine] | 10.62 | –
